In general, Ki refers to the equilibrium dissociation constant of an inhibitor or competing ligand from its target. High values mean weaker binding, low ones tighter binding. For orientation: % inhibition means how much of the control response was suppressed. A lower % inhibition goes with a weak effect. A word on the IC50: it is the concentration that gives 50% inhibition.

Each structure is given as a SMILES string.

The target of the first experiment is T1, Angiotensin II receptor (Bos taurus, UniProt P25104).
T1 construct: carried out on partly purified membrane fractions of bovine AC with radioactive angiotensin II; from tissue; host or cells: bovine adrenal cortex, freed from medulla, partly purified membrane fractions
T1 sequence (P25104 1-359): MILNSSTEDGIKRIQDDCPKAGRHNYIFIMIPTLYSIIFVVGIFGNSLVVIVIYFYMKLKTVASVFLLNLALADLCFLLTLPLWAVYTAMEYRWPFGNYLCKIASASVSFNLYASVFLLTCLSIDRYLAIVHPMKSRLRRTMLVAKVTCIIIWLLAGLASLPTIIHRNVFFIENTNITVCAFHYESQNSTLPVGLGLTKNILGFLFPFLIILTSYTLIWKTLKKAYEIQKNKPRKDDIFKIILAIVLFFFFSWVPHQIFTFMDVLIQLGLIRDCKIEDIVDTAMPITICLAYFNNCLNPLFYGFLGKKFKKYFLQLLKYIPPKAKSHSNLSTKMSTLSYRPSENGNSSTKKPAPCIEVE
As to the kind of experiment: Interaction with the angiotensin II receptor on membrane fractions of the adrenal cortex (cattle), 3H-angiotensin II bonding. The class given is binding. The conditions noted are these: bovine adrenal cortex membranes; 3H-angiotensin II (3-5 nM); 60 minutes at room temperature. As to the method: Adrenal cortices from cattle (AC), which are freshly removed and carefully freed from medulla from the capsule, are comminuted to a coarse membrane homogenate in sucrose solution (0.32M) with the aid of an Ultra-Turrax (Janke & Kunkel, Staufen i.B.), and the homogenate is partly purified to membrane fractions in two centrifugation steps.
The investigations on receptor bonding are carried out on partly purified membrane fractions of bovine AC with radioactive angiotensin II in an assay volume of 0.25 ml, which specifically contains the partly purified membranes (50-80 μg), ^3 H-angiotensin II (3-5 nM), test buffer solution (50 mM Tris, pH 7.2), 5 mM MgCl2 and the substances to be investigated. After an incubation time of 60 minutes at room temperature, the non-bonded radioactivity of the samples is separated off by means of moistened glass fibre filters (Whatman GF/C), and, after the protein has been washed with ice-cold buffer solution (50 mM Tris/HCl, pH 7.4, 5% PEG 6000), the radioactivity bonded is measured […] in a scintillation cocktail. The raw data were analysed with computer programs to give Ki and IC50 values (Ki : IC50 values corrected for the radioactivity used; IC50 values: concentration at which the substance to be investigated causes 50% inhibition of specific bonding of the radioligand).
In turn, `CCCCc1nc(Cl)c(C(=O)O)n1Cc1ccc(S(=O)(=O)N2CCC[C@H]2C(=O)O)cc1` [Example 15] had a Ki of 400 nM.

With `CCCCc1nc(Cl)c(C(=O)O)n1Cc1ccc(S(=O)(=O)N2CCCCC2C(=O)OC(C)(C)C)cc1Cl` (stereo not drawn) [Example 18], the Ki amounted to 200 nM.

A further experiment has as its system smooth muscle cells. Kind of experiment: Inhibition of the proliferation of smooth muscle cells (3H-thymidine incorporation). Format: cell-based, rats or pigs. Conditions: at 10^-6 M (so in the source); growth stimulated with AII, serum or other factors. Here is the method: Smooth muscle cells which are obtained from the aortas of rats or pigs by the media explantate technique are used to determine the antiproliferative action of the compounds [R. Ross, J. Cell. Biol. 50, 172, 1971]. The cells are sown in suitable culture dishes, as a rule 24-hole plates, and cultured for 2-3 days in medium 199 containing 7.5% of FCS and 7.5% of NCS, 2 mM of L-glutamine and 15 mM of HEPES, pH 7.4, in 5% CO2 at 37° C. Thereafter, the cells are synchronised by serum withdrawal for 2-3 days and then stimulated to growth with AII, serum or other factors. Test compounds are added at the same time. After 16-20 hours, 1 μCi of ^3 H-thymidine is added, and after a further 4 hours, the incorporation of this substance into the TCA-precipitatable DNA of the cells is determined.
(In general: Incorporation of labelled thymidine or its analogues reports DNA synthesis.)
Regarding `CCCCc1nc(Cl)c(CO)n1Cc1ccc(S(=O)(=O)N2CCCCC2)cc1` [Example 11], the “% inhibition at 10^6 M” value turned out to be 20%. On to `CCCCc1nc(Cl)c(CO)n1Cc1ccc(S(=O)(=O)N2CCC[C@H]2C(=O)OC(C)(C)C)cc1Cl` [Example 12], for which the “% inhibition at 10^6 M” value was determined as 70%.

The subject of the next experiment is isolated aortic rings of rabbits, contraction induced by AII. Kind of experiment: Inhibition of angiotensin II-induced contraction on isolated aortic rings of rabbits in vitro. Format: cell-based, rabbit. The conditions noted are these: Oryctolagus cuniculus, 3rd=submaximum agonist concentration, read-out: IC50 against contractions induced by AII. Here is the method: Rabbits of both sexes are stunned by a blow to the neck and exsanguinated or, where appropriate, anaesthetised with Nembutal (about 60-80 mg/kg i.v.) and sacrificed by opening the thorax. The thoracic aorta is removed, freed from attached connective tissue and divided into ring segments 1.5 mm wide, and the segments are introduced individually, under an initial load of about 3.5 g, into 10 ml organ baths containing carbogen-gassed KrebsHenseleit nutrient solution thermostatically controlled at 37° C. and having the following composition: 119 mmol/l of NaCl; 2.5 mmol/l of CaCl2 ×2 H2 O; 1.2 mmol/l to KH2 PO4; 10 mmol/l of glucose; 4.8 mmol/l of KCl; 1.4 mmol/l of MgSO4 ×7 H2 O and 25 mmol/l of NaHCO3.
The contractions are recorded isometrically by Statham UC2 cells via a bridge amplifier (ifd Mulheim or DSM Aalen), and are digitalised and evaluated by means of an A/D converter (system 570, Keithley Munich). The agonist dose/effect curves (DEC) are plotted hourly. For each DEC, 3 or 4 individual concentrations are applied to the baths at intervals of 4 minutes. The DEC and subsequent wash-out cycles (16 times for about 5 sec/min each with the above nutrient solution) are followed by a 28-minute resting or incubation phase, within which the contractions as a rule reach the starting value again.
The level of the 3rd DEC in the normal case is used as a reference parameter for evaluating the test substance which is to be investigated in subsequent passes and, for the subsequent DECs, is applied to the baths at the start of the incubation time in a dosage which increases each time. Each aortic ring is stimulated with always the same agonist over the entire day.
Agonists and their standard concentrations (application
The effect in each case at the 3rd=submaximum agonist concentration is taken as a basis for calculation of the IC50 (concentration at which the substance to be investigated causes 50% inhibition).
Take `CCCCc1nc(Cl)c(C(=O)O)n1Cc1ccc(S(=O)(=O)N2CCCCC2C(=O)O)cc1` (stereo not drawn) [Example 25]: the concentration for half-maximal inhibition (IC50) was 5 nM. `CCCCc1nc(Cl)c(CO)n1Cc1ccc(S(=O)(=O)N2CCC[C@H]2C(=O)O)cc1Cl` [Example 19]: the IC50 came to 44 nM. On to `CCCCc1nc(Cl)c(C(=O)O)n1Cc1ccc(S(=O)(=O)N2CCC[C@H]2C(=O)O)cc1` [Example 15], for which the IC50 was 202 nM. As for `CCCCc1nc(Cl)c(C(=O)O)n1Cc1ccc(S(=O)(=O)N2CCCCC2C(=O)O)cc1Cl` (stereo not drawn) [Example 16], the 50% inhibitory concentration (IC50) stood at 309 nM. Regarding `CCCCc1nc(Cl)c(CO)n1Cc1ccc(S(=O)(=O)N2CCC[C@H]2C(=O)O)cc1` [Example 21], the IC50 came out at 250 nM.

The record behind these values is patent US5318980A, “Sulphonylbenzyl-substituted imidazoles” (Bayer Aktiengesellschaft, priority 1992, dated 1994).
